Like-named read-outs stand apart in the source and are kept apart here.
Experiments:
KLF4 [1] = test: KLF4 gene expression by RT-PCR, H-460; type: cell-based, human; details: H-460, relative to vehicle control as 1
Excerpt: (§1) Gene expression levels of KLF4, induced by compounds of Formula I, were also examined on various cancer cell types by RT-PCR. Fold changes in KLF4 in compound-treated cells were expressed relative to KLF4 expression in vehicle control-treated cells of respective cell type as “1”. […] Additionally, xenografts of MDA-MB-435 implanted into mammary fat pads of female SCID mice have shown immunohistochemical staining consistent with melanocytic origin (Ellison G, Klinowska T, Westwood R F, Docter E, French T, Fox J C. (2002) Mol Pathol. 55(5): 294-299). The breast cancer cell line MDA-MB-435 may be expected to function differently than the other breast cancer cell lines.
Expressions of KLF2, 4 and 6 genes in H-460 cells, treated with vehicle control or 2.5 μM compound 3 or compound 7, were measured by RT-PCR. Gene expression was presented relative to respective gene expression in vehicle control-treated group as “1”.

KLF4 [2] = test: KLF4 gene expression by RT-PCR, CCRF-CEM; type: cell-based, human; details: relative to vehicle control as 1
Excerpt: as §1

H-460 lung cancer cells = test: XTT cell proliferation assay, H-460; type: cell-based, human; details: read-out: IC50 (cell growth inhibition)
Procedure: (§2) Cell growth inhibition IC50 (μM) by compounds of Formula I was tested on various cancer cell types by XTT cell proliferation assay. The growth inhibitory effects of the compounds of Formula I as shown below for the melanoma cell line SK-MEL-2 were reproducible by Lorus Therapeutics Inc.

KLF4 [3] = test: KLF4 gene expression by RT-PCR, HCT-116; type: cell-based, human; details: HCT-116, relative to vehicle control as 1
Excerpt: as §1

CCRF-CEM leukemia cells = test: XTT cell proliferation assay, CCRF-CEM; type: cell-based, human; details: read-out: IC50 (cell growth inhibition)
Procedure: as §2

[4] = tested on: PC-3 prostate cancer cells; test: XTT cell proliferation assay, PC-3; type: cell-based, human; details: read-out: IC50 (cell growth inhibition)
Procedure: as §2

KLF4 [5] = test: KLF4 gene expression by RT-PCR, MDA-MB-231; type: cell-based, human; details: MDA-MB-231, relative to vehicle control as 1
Excerpt: as §1

KLF4 [6] = test: KLF4 gene expression by RT-PCR, MDA-MB-435; type: cell-based, human; details: MDA-MB-435, relative to vehicle control as 1
Excerpt: as §1

KLF4 [7] = test: KLF4 gene expression by RT-PCR, DU-145; type: cell-based, human; details: DU-145, relative to vehicle control as 1
Excerpt: as §1

[8] = tested on: human colon carcinoma HT-29 cells; test: XTT cell proliferation assay, HT-29; type: cell-based
Procedure: The ability of compounds of Formula I to inhibit the proliferation of human colon carcinoma HT-29 cells was tested as follows. HT-29 colon carcinoma cells used in this example and subsequent examples were maintained as a monolayer in a growth medium; McCoy's 5A modified medium (Sigma, St. Louis, Mo.), supplemented with 2 mM L-glutamine (Gibco, Grand Island, N.Y.), 10% fetal bovine serum (FBS) (Multicell, WISENT Inc. St-Bruno, QC), antibiotic-antimycotic (Multicell), at 37° C. in a 5% CO2-humidified incubator. Cells were transferred onto 150 mm tissue culture plates and grown until sub-confluency (70-80%) prior to their use. The in vitro antiproliferative activity of compounds was evaluated by incubating the cells with varying concentrations of the compounds as shown in Table 1 for 6-7 days. The efficacy of these compounds in this cell proliferation assay was measured based in the ability of live cells to reduce the tetrazolium salt XTT to orange colored compounds of formazan (XTT cell proliferation kit II, Roche Applied Science, Montreal, QC).
The ability of compounds of Formula I to inhibit the proliferation of human colon carcinoma HT-29 cells was tested as described above in Example 13.
as §2

MOLT-4 leukemia cells = test: XTT cell proliferation assay, MOLT-4; type: cell-based, human; details: read-out: IC50 (cell growth inhibition)
Procedure: as §2

KLF4 [9] = test: KLF4 gene expression by RT-PCR, HT-29; type: cell-based, human; details: HT-29, relative to vehicle control as 1
Procedure: To determine whether compounds of Formula I can chelate zinc in cells, the effect of compound 3 on the expression level of a zinc-regulated gene, metallothionein 1A (MT1A), in human colon carcinoma HT-29 cells, was determined. HT-29 cells, 1×10^6 cells in 10 mL volume of the growth medium were seeded in 100 mm dishes and incubated overnight at 37° C. The medium was removed and replaced with the growth medium containing 35 μM ZnCl2, 1 μM or 4 μM TPEN (NNNN-tetrakis(2-pyridyl-methyl)ethylenediamine), or 1 μM or 4 μM compound 3, or 0.1% DMSO vehicle control. After incubation for 16 hours, the cells were detached by trypsinization, collected by centrifugation and washed once with PBS. Total RNA was extracted by using TRIZOL (Invitrogen, Life Technologies, Carlsbad, Calif.), following manufacturer's instruction, and the level of MT1A mRNA was measured by real time PCR using the comparative CT method as follows. First strand cDNA was synthesized from 200 ng total RNA in Biometra Tpersonal Thermal Cycler (Abgene, UK), using pd(N)6 random hexamer (Amersham Biosciences, Piscataway, N.J.) and SuperScript™ II Reverse Transcriptase kit (Invitrogen) by following manufacturer's protocol. Real-time PCR was performed in ABI Prism 7000 Sequence Detection System (Applied Biosystems Inc., ABI, Foster City, Calif.), using 5 μL of cDNA synthesized by above-mentioned procedure and respective TaqMan® Gene Expression Assays (ABI) by following ABI TaqMan® Universal PCR master mix protocol.
The ability of compounds of Formula I to modulate the mRNA level of a transition metal-regulated tumour suppressor gene was determined in vitro as follows. Compound 3 was tested to determine its ability to increase the expression of zinc-regulated tumour suppressor KLF4 mRNA in colon carcinoma HT-29 cells. […] HT-29 cells were incubated for 16 hours with DMSO as a vehicle control, 35 μM ZnCl2, 1 μM or 4 μM of compound 3, or 1 μM or 4 μM TPEN for 16 hours and mRNA was extracted from the cells as described in Example 19. The expression of KLF4 mRNA was analyzed by real-time polymerase chain reaction using the comparative CT method also as described in Example 19. Compound 3 induced the expression of KLF4 mRNA (approximately 8-fold) in HT-29 cells compared with HT-29 cells treated with vehicle alone (See FIG. 8).
as §1
The change in gene expression of KLF4 upon zinc depletion following compound 3 treatment was determined by RT-PCR as follows. HT-29 cells were treated with 1 μM compound 3 for the indicated time (FIG. 39A) or HT-29 cells were treated with 1 μM compound 3, 35 μM ZnCl2 or compund 3 and ZnCl2 together for 16 hr (FIG. 39B). Total RNA was extracted and gene expression level was determined by RT-PCR.
Fold change in KLF4 gene expression was presented relative to KLF4 expression in non-specific siRNA-transfected cells treated with vehicle control.

KLF4 [10] = test: KLF4 gene expression by RT-PCR, PC-3; type: cell-based, human; details: PC-3, relative to vehicle control as 1
Excerpt: as §1

SK-MEL-2 melanoma cells = test: XTT cell proliferation assay, SK-MEL-2; type: cell-based, human; details: read-out: IC50 (cell growth inhibition)
Procedure: as §2

KLF4 [11] = test: KLF4 gene expression by RT-PCR, MOLT-4; type: cell-based, human; details: MOLT-4, relative to vehicle control as 1
Excerpt: as §1

[12] = tested on: DU-145 prostate cancer cells; test: XTT cell proliferation assay, DU-145; type: cell-based, human; details: read-out: IC50 (cell growth inhibition)
Procedure: as §2

KLF4 [13] = test: KLF4 gene expression by RT-PCR, SK-MEL-2; type: cell-based, human; details: SK-MEL-2, relative to vehicle control as 1
Excerpt: as §1

[14] = tested on: MDA-MB-435 breast cancer cells; test: XTT cell proliferation assay, MDA-MB-435; type: cell-based, human; details: read-out: IC50 (cell growth inhibition)
Procedure: as §2

[15] = tested on: HCT-116 colon cancer cells; test: XTT cell proliferation assay, HCT-116; type: cell-based, human; details: read-out: IC50 (cell growth inhibition)
Procedure: as §2

[16] = tested on: MDA-MB-231 breast cancer cells; test: XTT cell proliferation assay, MDA-MB-231; type: cell-based, human; details: read-out: IC50 (cell growth inhibition)
Procedure: as §2

- IC50 (H-460 lung cancer cells): 400 nM
- IC50 (CCRF-CEM leukemia cells): 300 nM
- IC50 [4]: 320 nM
- IC50 ([8]; HT-29, XTT, as Example 13, Table 7): 0.2 µg/mL
- IC50 ([8]; HT-29 colon, Table 8, read-out: IC50 (cell growth inhibition)): 200 nM
- IC50 (MOLT-4 leukemia cells): 200 nM
- IC50 (SK-MEL-2 melanoma cells): 170 nM
- IC50 [12]: 400 nM
- IC50 [14]: 500 nM
- IC50 [15]: 300 nM
- IC50 [16]: 3700 nM
Structure (SMILES): CC(C)(C)c1ccc2[nH]c(C(C)(C)C)c(-c3nc4c5cccnc5c5ncccc5c4[nH]3)c2c1 [Compound 63]
- KLF4 (gene fold increase) (KLF4 [1]): 1.55 fold
- KLF4 (gene fold increase) (KLF4 [2]): 76.37 fold
- KLF4 (gene fold increase) (KLF4 [3]): 2.82 fold
- KLF4 (gene fold increase) (KLF4 [5]): 1.77 fold
- KLF4 (gene fold increase) (KLF4 [6]): 7.67 fold
- KLF4 (gene fold increase) (KLF4 [7]): 12.95 fold
- KLF4 (gene fold increase) (KLF4 [9]): 5.98 fold
- KLF4 (gene fold increase) (KLF4 [10]): 1.34 fold
- KLF4 (gene fold increase) (KLF4 [11]): 223.63 fold
- KLF4 (gene fold increase) (KLF4 [13]): 5.46 fold

From patent US8148392B2, “2-indolyl imidazo [4,5-d] phenanthroline derivatives and their use in the treatment of cancer” (Lorus Therapeutics Inc., priority 2005, dated 2012)
